In test [1] the target is Bromodomain-containing protein 4 (Homo sapiens, UniProt O60885). The test can be described thus: Inhibition of BRD4 BD1 (unknown origin) using FAM-labeled JQ-1 as fluorescent substrate assessed as inhibition constant incubated for 30 mins by competitive fluorescence polarization method.
The subject of test [2] is Mus musculus. In words: Protection against LPS-induced sepsis in C57BL/6 mouse model assessed as increase in survival rate at 30 mg/kg, ip qd administered for 3 days followed by LPS stimulation and measured every 2 hrs for 120 hrs (reference value: 10%). The test is classed as functional.
In test [3] the test system is RAW264.7. The test can be described thus: Antiinflammatory activity in mouse RAW264.7 cells assessed as reduction in LPS-induced IL-6 mRNA expression preincubated for 2 hrs followed by LPS stimulation and measured after 22 hrs by RT-qPCR analysis. The test is classed as functional, cell-based. The conditions noted are these: dose 5-25 µM, time 24.0 hrs, DDE = dose-dependent effect. Background: Real-time PCR tracks product formation cycle by cycle.

For test [4], the system named is RAW264.7. The test can be described thus: Antiinflammatory activity in mouse RAW264.7 cells assessed as inhibition of LPS-induced NO production at 5 uM preincubated for 2 hrs followed by LPS stimulation and measured after 22 hrs by Griess reagent-based assay relative to control. The test is classed as functional. The conditions noted are these: time 24 hrs. Background: Griess reagent forms a coloured azo dye with nitrite.

Test [5] concerns RAW264.7. The test can be described thus: Antiinflammatory activity in mouse RAW264.7 cells assessed as inhibition of LPS-induced NO production at 10 uM preincubated for 2 hrs followed by LPS stimulation and measured after 22 hrs by Griess reagent-based assay relative to control. It is filed as functional. The note with it: time 24 hrs.
The test system of test [6] is Mus musculus. In words: Protection against LPS-induced sepsis in C57BL/6 mouse model assessed as increase in survival rate at 15 mg/kg, ip qd administered for 3 days followed by LPS stimulation and measured every 2 hrs for 120 hrs (reference value: 10%). The test is classed as functional.
The subject of test [7] is RAW264.7. In words: Antiinflammatory activity in mouse RAW264.7 cells assessed as reduction in LPS-induced TNF-alpha level at 5 to 10 uM preincubated for 2 hrs followed by LPS stimulation and measured after 22 hrs by ELISA. It is filed as functional, cell-based. The conditions noted are these: dose 5-10 µM, time 24.0 hrs. A general note: An ELISA detects its analyte on a solid surface through an enzyme-linked reagent.

For test [8], the system named is Mus musculus. In words: Antiinflammatory activity against LPS-induced sepsis in C57BL/6 mouse model assessed as reduction in IL-6 level at 15 mg/kg, ip qd administered for 3 days followed by LPS stimulation and measured after 12 hrs by ELISA. It is filed as functional, organism-based. The conditions noted are these: time 84.0 hrs.
For test [9], the system named is Mus musculus. The test can be described thus: Protection against LPS-induced sepsis in C57BL/6 mouse model assessed as reduction in hypothermia administered intraperitoneally daily for 3 days followed by LPS stimulation for 12 hrs and measured every 1 hr by digital thermometer. It is filed as functional, organism-based. The conditions noted are these: dose lower […], dose upper 30.0 mg/kg, route ip, time 84.0 hrs, DDE = dose-dependent effect.

The test system of test [10] is Mus musculus. In words: Protection against LPS-induced sepsis in C57BL/6 mouse model assessed as improvement in mobility at 30 mg/kg, ip qd administered for 3 days followed by LPS stimulation. It is filed as functional, organism-based. The conditions noted are these: time 3.0 day.
Test [11] deals with RAW264.7. In words: Antiinflammatory activity in mouse RAW264.7 cells assessed as reduction in LPS-induced IL-6 level at 5 to 10 uM preincubated for 2 hrs followed by LPS stimulation and measured after 22 hrs by ELISA. The note with it: dose 5-10 µM, time 24.0 hrs. The test is classed as functional, cell-based.
Test [12] deals with Mus musculus. The test can be described thus: Antiinflammatory activity against LPS-induced sepsis in C57BL/6 mouse model assessed as reduction in TNF-alpha level at 15 mg/kg, ip qd administered for 3 days followed by LPS stimulation and measured after 12 hrs by ELISA. It is filed as functional, organism-based. The note with it: time 84.0 hrs.
Test [13] concerns RAW264.7. The test can be described thus: Antiinflammatory activity in mouse RAW264.7 cells assessed as reduction in LPS-induced IL-1beta mRNA expression preincubated for 2 hrs followed by LPS stimulation and measured after 22 hrs by RT-qPCR analysis. It is filed as functional, cell-based. The note with it: dose 5-25 µM, time 24.0 hrs, DDE = dose-dependent effect.
Test [14] has as its system Mus musculus. In words: Protection against LPS-induced sepsis in C57BL/6 mouse model assessed as reduction in white secretion from eyes at 30 mg/kg, ip qd administered for 3 days followed by LPS stimulation. It is filed as functional, organism-based. The note with it: time 3.0 day.
The subject of test [15] is RAW264.7. In words: Antiinflammatory activity in mouse RAW264.7 cells assessed as reduction in LPS-induced TNF-alpha mRNA expression preincubated for 2 hrs followed by LPS stimulation and measured after 22 hrs by RT-qPCR analysis. The conditions noted are these: dose 5-25 µM, time 24.0 hrs, DDE = dose-dependent effect. It is filed as functional, cell-based.
Test [16] concerns Mus musculus. The test can be described thus: Protection against LPS-induced sepsis in C57BL/6 mouse model assessed as improvement in orbital movement at 30 mg/kg, ip qd administered for 3 days followed by LPS stimulation. It is filed as functional, organism-based. The conditions noted are these: time 3.0 day.

From ChEMBL document CHEMBL5113393, “Discovery of 2-((2-methylbenzyl)thio)-6-oxo-4-(3,4,5-trimethoxyphenyl)-1,6-dihydropyrimidine-5-carbonitrile as a novel and effective bromodomain and extra-terminal (BET) inhibitor for the treatment of sepsis” (Eur J Med Chem, 2022) come the findings set out here.

The structures appear in SMILES notation. Calls of active or inactive are those of the source. No cut-off for these calls is given here.

Usually Ki stands for the equilibrium dissociation constant of an inhibitor or competing ligand from its target. The term inhibition denotes the relative decrease from the control value, in per cent.

On to `COc1cc(-c2nc(SCc3ccccc3C)[nH]c(=O)c2C#N)cc(OC)c1OC`, for which, in test [1], the inhibition constant (Ki) was 830 nM. For the same compound, the survival at 30 mg/kg in the test with Mus musculus [2] was 80%. For the same compound, the Activity entry in the test with RAW264.7 [3], in the test with Mus musculus [9], in the test on RAW264.7 [13] and in the test on RAW264.7 [15] was “Dde” throughout. Moreover, the inhibition at 5 µM in the test with RAW264.7 [4] stood at 74.2%. The inhibition at 10 µM in the test with RAW264.7 [5] was determined as 99.8%. In addition, the survival at 15 mg/kg in the test on Mus musculus [6] is 50%. The result in the test with RAW264.7 [7], in the test with Mus musculus [8], in the test on Mus musculus [10], with RAW264.7 [11], with Mus musculus [12] and in the test on Mus musculus [14] was Active. Further, the result in the test on Mus musculus [16] was Active.
